# Patent publication US20030235634A1, “Extraction of non-polar isothiocyanates from plants and dietary supplements containing same” (ACCESS BUSINESS GROUP INTERNATIONAL LLC., priority 2002, published 2003)
# Read-outs that look alike come from different tables or passages of the source.
# Assays:
# Solubility in water = test: Solubility in water
# Protocol: Garden cress powder, prepared by drying at 45° C. and containing about […] BITC, and watercress powder, prepared by drying at 50° C. and containing about […] PEITC, were mixed in equal parts. From the mixture, 500 mg were added to a 50 mL conical vial to which 10 mL of water was added and the mixture homogenized for 2 minutes. The mixture was extracted twice with 10 mL safflower oil using homogenization at level 6 (Omni 5000 Mixer) for one minute and centrifuged for 3 minutes at 8,000×g. The oil fractions were collected, pooled and the volume brought up to 25 mL.
# [1] = Dissolution of purchased BITC and PEITC in safflower oil (how much can be stored in the oil); type: physicochemical; conditions: composition in safflower oil (78.91 % volume oil)
# From the text: BITC and PEITC were purchased from Aldrich (Sigma-Aldrich, Milwaukee, Wis.) and dissolved in safflower oil to determine how much of the non-polar isothiocyanates could be stored in the oil.
smiles,measurement,setting,value
"S=C=NCc1ccccc1 [BITC, Benzyl isothiocyanate]",solubility in water,"Solubility in water; water, no test described",not soluble in water
same,% Volume,[1],11.50 % Volume
same,ppm (mg/L),[1],"129,430 ppm (mg/L)"
"S=C=NCCc1ccccc1 [PEITC, phenethyl isothiocyanate]",solubility in water,Solubility in water,not soluble in water
same,% Volume,[1],9.59 % Volume
same,ppm (mg/L),[1],"104,540 ppm (mg/L)"
